# Data from patent US8207211B2, “Photosensitizers for targeted photodynamic therapy” (The General Hospital Corporation, priority 2005, dated 2012).
# Assays:
# [1] = Octanol-water distribution coefficient; type: physicochemical; details: 1-octanol/DI water, absorbance at 330 nm
# Method: Each compound was dissolved in a minimum amount of DMSO: CI1 (0.9 mg in 200 μl), CI2 (5.3 mg in 200 μl), CI3 (5.4 mg in 200 μl). Ten ml of DI water and 10 ml of 1-octanol were added in each compound and vigorously shaken for 2 min. and the vials of the compounds were settled down overnight. The phases were separated and UV-spectra of each phase were analyzed. Distribution coefficient of each compound was determined using absorbance of aqueous phases and organic phases at 330 nm.
# S. aureus = assay: Photodynamic inactivation (PDI), CFU survival, 405-nm light (Example 8); type: cell-based, Staphylococcus aureus
# Excerpt: (§1) Four microbial species were used in this study. Briefly, Escherichia coli was purchased from ATCC (ATCC #25922), Pseudomonas aeruginosa, two clinical isolates, were obtained; UCBP PA 14 from L. Rahme (Massachusetts General Hospital) and PA 767K from Kim Lewis (Tufts University), slime deficient mutant of Staphylococcus aureus was obtained from Gerald B Pier (Channing Laboratories). Yeast strain Candida albicans was purchased from ATCC (ATCC #18804). Exponential cultures obtained by reculturing stationary overnight cultures were used for all experiments. Bacteria were grown at 37° C. in BHI broth to a cell density of 10^8 cells per mL. C. albicans was grown 37° C. in YM medium to 10^7 cells/mL.
# (§2) Six fullerene derivatives (NI1-3 and CI1-3) were evaluated. […] Concentration of fullerene derivatives used in the experiments varied between 1 and 100 μM.
# Fullerene derivatives were mixed with microbial suspensions and incubated in the dark at room temperature for 10 minutes. Excess fullerenes were either washed out of, or left in, the suspensions before illumination. Aliquots of 100 μL were placed on three well hanging drop slides and illuminated with either a 405-nm laser (Nichia Chemical Industries) at an irradiance of 100 mW/cm^2, or with white light at room temperature. White light was 400-700 nm Gaussian distribution from LumaCare™ lamp with filtered liquid light guide, as described above.
# During illumination, aliquots of 20 μL were taken to determine the colony-forming units. The contents of the wells were mixed before sampling. The aliquots were serially diluted 10-fold in PBS without Ca^++/Mg^++ to give dilutions of 10^−1−10^−6 times the original concentrations, and were streaked horizontally on square BHI agar plates. Plates were incubated at 37° C. overnight. Colonies were counted and survival fraction was determined as percent of survival compared to control. Microbial suspensions incubated with fullerene derivatives in DMSO in the absence of light and bacteria illuminated in the absence of fullerene derivatives were used as controls. […]
# E. coli [2] = assay: as above; type: cell-based, Escherichia coli; details: 10-20 μM, 16 J/cm^2 of 405-nm light
# Excerpt: as §1, §2
# (§3) Fullerene derivatives were mixed with microbial suspensions and incubated in the dark at room temperature for 10 minutes. Excess fullerenes were either washed out of, or left in, the suspensions before illumination. […]
# (§4) During illumination, aliquots of 20 μL were taken to determine the colony-forming units. […] Colonies were counted and survival fraction was determined as percent of survival compared to control. […]
# C. albicans [3] = assay: as above; type: cell-based, Candida albicans; details: 10-20 μM, 16 J/cm^2 of 405-nm light
# Excerpt: as §1, §2, §3, §4
# E. coli [4] = assay: Photodynamic inactivation (PDI), CFU survival, white light (red light for TBO); type: cell-based, Escherichia coli; details: 10 μM
# Method: (§5) Staphylococcus aureus (ATCC #35556), Escherichia coli (ATCC #25922), and Pseudomonas aeruginosa (ATCC #BAA-47; PAO1) were cultured in brain-heart infusion (BHI) broth (Difco, BD Diagnosttic Systems, Sparks, Md.) at 37° C. in aerobic conditions in a shaker at 150 rpm. Candida albicans (ATCC #18804) is grown in YM broth (Difco). Exponential cultures obtained by reculturing stationary overnight precultures were used for experiments.
# (§6) E. coli, P. aeruginosa, and S. aureus are grown in fresh medium for approximately 1 hr to a density of about 10^8 cells/ml; the OD values at 650 nm are 0.6, 0.8, and 0.8, respectively. C. albicans is grown for approximately 4 hr to an approximate density of 10^8 cells/ml, corresponding to an OD of 6 at 650 nm (measured at 10-fold dilution). Cells were used for experiments in the mid-log growth phase.
# (§7) A noncoherent lamp with filtered liquid light guides, e.g., a LumaCare™ LC122 lamp (MBG Technologies, Inc., Newport Beach, Calif.) was used to provide illumination of PS. More specifically, for illumination of fullerenes, a broad-band white light band pass filter (400-700 nm) was used, whereas for TBO, a band pass filter at 620-650 nm was used. The lamp was adjusted to give a uniform spot of about 4 cm diameter with an irradiance of 200 mW/cm^2, as measured with a power meter, e.g., a model DMM 199 meter with 201 Standard head (Coherent, Santa Clara, Calif.).
# (§8) Typically, derivatized fullerenes prepared as described above are dissolved in DMSO to provide stock solutions having final concentrations of about 5 mM. […] All stock solutions were stored in the dark at room temperature.
# (§9) In some experiments, for example in studies described in Examples below, suspensions of S. aureus cells (10^8 per ml) were incubated with derivatized fullerenes such as NI-1-3 and CI1-3 at a concentration of 100 μM in PBS at room temperature for 10 min. In other experiments, the bacterial suspension was centrifuged (4000×g for 10 min) after incubation and resuspended in fresh PBS before illumination; the latter procedure was referred to herein as a “wash.” E. coli, P. aeruginosa, and C. albicans were used at concentrations of about 10^8 cells per ml.
# (§10) Illumination was carried out from above on microbial cell suspensions in wells of a 24-well plate. Aliquots were removed at times corresponding to the delivery of calculated fluences of light, and were serially diluted in PBS and streaked on square BHI or YM agar plates according to the method of Jett et al. (Jett, B. D., Hatter, K. L., Huycke, M. M., and Gilmore, M. S. (1997). Simplified agar plate method for quantifying viable bacteria. Biotechniques 23, 648-650). Survival fractions were calculated with reference to cells incubated in PBS alone. Values on killing curves at 0 J/cm^2 represent the dark toxicity of the fullerenes or other PS tested. Control cells were treated with light and no PS and also analyzed for viability.
# P. aeruginosa = assay: as above; type: cell-based, Pseudomonas aeruginosa; details: 10 μM, 10 min, white light up to 50 J/cm^2
# Method: as §5, §6, §7, §8, §9, §10
# C. albicans [5] = assay: as above; type: cell-based, Candida albicans; details: 10 μM, 10 min
# Method: as §5, §6, §7, §8, §9, §10
smiles,measurement,setting,value
C[N+]1(C)Cc2c(c3c4ccc5c6ccc7c8ccc9c%10c%11c%12c(c2c2c3c3c4c5c4c6c7c5c8c9c%11c6c(c%122)c3c4c56)C2C[N+](C)(C)CC%102)C1 (stereo not shown) [CI2],Kow (octanol-water partition constant),[1],1.28
same,LogKow,[1],0.11
same,PDI of S. aureus,"S. aureus; 100 μM, 10 min, 405 nm light 0-200 J/cm^2",most potent
same,killing of S. aureus,"S. aureus; 1-μM, 8 J/cm^2, 405 nm light",6 logs
same,potency relative to the other fullerene derivatives,"S. aureus; S. aureus, 1 μM and 8 J/cm^2 versus 100 μM screen",approximately 1000 times
same,killing of E. coli,E. coli [2],high levels of killing
same,killing of C. albicans,C. albicans [3],high levels of killing
same,change of E. coli killing in the presence of serum versus no serum,"E. coli [4]; 10 min, 10% FBS, with a wash, white light",about 1 log
same,PDT activity against E. coli,"E. coli [4]; 10 min, white light up to 50 J/cm^2",effectively killed
same,killing of E. coli,"E. coli [4]; with a wash, 2 J/cm^2 white light",4 logs
same,PDT activity against P. aeruginosa,P. aeruginosa,effectively killed
same,PDT activity against C. albicans,C. albicans [5]; white light up to 50 J/cm^2,effectively killed
same,relative effectiveness in killing C. albicans,"C. albicans [5]; with a wash, white light",much better than CI1
